Laboratory results: ChEMBL document CHEMBL1201862, “PubChem BioAssay data set” (2004)
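The compound was tested at five concentrations on cells cultured in 96-well plates, with a 48-hour exposure period. GI50: concentration for 50% inhibition of growth.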 Calls of active or inactive are those of the source. Rule as the data show it: active = GI50 up to about 1.1 µM and inactive = higher.

Assays:
Assay in all cases: NCI tumour cell line growth inhibition, 48 h
ACHN = system: ACHN
CAKI-1 = system: CAKI-1
CCRF-CEM = system: CCRF-CEM
DU-145 = system: DU-145
EKVX = system: EKVX
HCT-116 = system: HCT-116
HL-60 = system: HL-60
HOP-62 = system: HOP-62
IGROV-1 = system: IGROV-1
M14 = system: M14
MDA-N = system: MDA-N
MOLT-4 = system: MOLT-4
NCI-H226 = system: NCI-H226
NCI-H522 = system: NCI-H522
RXF 393 = system: RXF 393
SF-295 = system: SF-295
SN12C = system: SN12C
SW-620 = system: SW-620
U-251 = system: U-251

Compound | GI50 (ACHN) | GI50 (CAKI-1) | GI50 (CCRF-CEM) | GI50 (DU-145) | GI50 (EKVX) | GI50 (HCT-116) | GI50 (HL-60) | GI50 (HOP-62) | GI50 (IGROV-1) | GI50 (M14) | GI50 (MDA-N) | GI50 (MOLT-4) | GI50 (NCI-H226) | GI50 (NCI-H522) | GI50 (RXF 393) | GI50 (SF-295) | GI50 (SN12C) | GI50 (SW-620) | GI50 (U-251)
Nc1nc(SC/C=C/c2ccccc2)c2[nH]cnc2n1 | 97.9 µM (inactive) | 38.7 µM (inactive) | 54.2 µM (inactive) | 94.2 µM (inactive) | > 100 µM (inactive) | > 100 µM (inactive) | 54.7 µM (inactive) | 83.2 µM (inactive) | 22.2 µM (inactive) | 71.8 µM (inactive) | > 100 µM (inactive) | > 100 µM (inactive) | 35.2 µM (inactive) | 19.5 µM (inactive) | 51.5 µM (inactive) | > 100 µM (inactive) | > 100 µM (inactive) | > 100 µM (inactive) | > 100 µM (inactive)
CCOP1(=O)CC(C)=C(Cl)C(OC)C1 (stereo unspecified) | > 100 µM (inactive) | > 100 µM (inactive) | 30.1 µM (inactive) | > 100 µM (inactive) | > 100 µM (inactive) | > 100 µM (inactive) | 57.1 µM (inactive) | > 100 µM (inactive) | > 100 µM (inactive) | > 100 µM (inactive) | > 100 µM (inactive) | > 100 µM (inactive) | > 100 µM (inactive) | 34 µM (inactive) | > 100 µM (inactive) | > 100 µM (inactive) | > 100 µM (inactive) | > 100 µM (inactive) | > 100 µM (inactive)
Cc1c2cnccc2c(C)c2c1[nH]c1ccc(O)cc12 | 1.32 µM (inactive) | 1.43 µM (inactive) | 0.74 µM (active) | 1.64 µM (inactive) | 2.88 µM (inactive) | 0.796 µM (active) | 1.05 µM (active) | 1.02 µM (active) | 1.85 µM (inactive) | 1.57 µM (inactive) | 2.79 µM (inactive) | 0.498 µM (active) | 0.328 µM (active) | 2.82 µM (inactive) | 1.53 µM (inactive) | 1.06 µM (active) | 1.12 µM (inactive) | 0.989 µM (active) | 2.02 µM (inactive)
CNc1ccc2nc(-c3ccc(OC(=O)N(C)C)cc3)cn2c1 | 19.2 µM (inactive) | 21.4 µM (inactive) | 12.6 µM (inactive) | 24.3 µM (inactive) | 19.3 µM (inactive) | 18.3 µM (inactive) | 22.5 µM (inactive) | 18.8 µM (inactive) | 17.9 µM (inactive) | 19.2 µM (inactive) | 19.2 µM (inactive) | 17.8 µM (inactive) | 20.8 µM (inactive) | 13.7 µM (inactive) | 13.3 µM (inactive) | 17.7 µM (inactive) | 14.1 µM (inactive) | 22.8 µM (inactive) | 15.5 µM (inactive)
O=[N+]([O-])c1ccc(S(=O)(=O)Cc2ccccc2)c2nonc12 | 22 µM (inactive) | 20.1 µM (inactive) | 9.06 µM (inactive) | 18.7 µM (inactive) | 21.1 µM (inactive) | 17.3 µM (inactive) | 18.3 µM (inactive) | 22.7 µM (inactive) | 18.8 µM (inactive) | 16.4 µM (inactive) | 19 µM (inactive) | 18.7 µM (inactive) | > 100 µM (inactive) | 18.8 µM (inactive) | 17.7 µM (inactive) | > 100 µM (inactive) | 13.9 µM (inactive) | 22.1 µM (inactive) | 18.2 µM (inactive)
O=C1/C(=C/c2ccc(F)cc2)CNC/C1=C\c1ccc(F)cc1 | 1.71 µM (inactive) | 1.12 µM (inactive) | 0.445 µM (active) | 1.75 µM (inactive) | 1.94 µM (inactive) | 0.27 µM (active) | 0.383 µM (active) | 1.78 µM (inactive) | 0.667 µM (active) | 1.99 µM (inactive) | 1.95 µM (inactive) | 2.11 µM (inactive) | 2.82 µM (inactive) | 1.53 µM (inactive) | 1.82 µM (inactive) | 2.09 µM (inactive) | 2.14 µM (inactive) | 0.364 µM (active) | 0.41 µM (active)
O=C(/N=N/c1cc(Cl)ccc1Cl)NNc1cc(Cl)ccc1Cl | – | 16 µM (inactive) | 13.6 µM (inactive) | 30.3 µM (inactive) | – | 18.6 µM (inactive) | 4.41 µM (inactive) | 17.3 µM (inactive) | 19 µM (inactive) | 17.1 µM (inactive) | 25.4 µM (inactive) | > 10 µM (inactive) | > 10 µM (inactive) | 13.2 µM (inactive) | 11.1 µM (inactive) | 22.8 µM (inactive) | 21.4 µM (inactive) | – | 16.7 µM (inactive)
N#CC12C(=O)N3C(=NC(c4ccco4)NC3c3ccco3)C1(C#N)C(c1ccco1)NC1=C2CCCC1 (stereo unspecified) | > 100 µM (inactive) | > 100 µM (inactive) | – | > 100 µM (inactive) | > 100 µM (inactive) | > 100 µM (inactive) | > 100 µM (inactive) | > 100 µM (inactive) | > 100 µM (inactive) | > 100 µM (inactive) | > 100 µM (inactive) | > 100 µM (inactive) | > 100 µM (inactive) | 73.1 µM (inactive) | > 100 µM (inactive) | > 100 µM (inactive) | > 100 µM (inactive) | > 100 µM (inactive) | > 100 µM (inactive)
NC(=O)c1c(NC=O)ncn1C1OCC(O)C(O)C1O (stereo unspecified) | > 100 µM (inactive) | > 100 µM (inactive) | > 100 µM (inactive) | > 100 µM (inactive) | > 100 µM (inactive) | > 100 µM (inactive) | > 100 µM (inactive) | > 100 µM (inactive) | > 100 µM (inactive) | – | > 100 µM (inactive) | > 100 µM (inactive) | > 100 µM (inactive) | > 100 µM (inactive) | > 100 µM (inactive) | > 100 µM (inactive) | > 100 µM (inactive) | > 100 µM (inactive) | > 100 µM (inactive)
O=NN1CCNC1Cc1ccccc1 (stereo unspecified) | 37.6 µM (inactive) | – | 31.8 µM (inactive) | 50.9 µM (inactive) | > 100 µM (inactive) | 71.6 µM (inactive) | 37.6 µM (inactive) | 58.5 µM (inactive) | > 100 µM (inactive) | 41.6 µM (inactive) | > 100 µM (inactive) | 27 µM (inactive) | > 100 µM (inactive) | 85.5 µM (inactive) | 88.7 µM (inactive) | 49 µM (inactive) | 63 µM (inactive) | > 100 µM (inactive) | 33.3 µM (inactive)
NC(CCCCNc1ccn(C2OC(CO)C(O)C2O)c(=O)n1)C(=O)O (stereo unspecified) | > 100 µM (inactive) | > 100 µM (inactive) | 35 µM (inactive) | > 100 µM (inactive) | > 100 µM (inactive) | – | > 100 µM (inactive) | – | 65.8 µM (inactive) | 37.8 µM (inactive) | > 100 µM (inactive) | 73.3 µM (inactive) | > 100 µM (inactive) | > 100 µM (inactive) | > 100 µM (inactive) | 30.6 µM (inactive) | > 100 µM (inactive) | > 100 µM (inactive) | 97.1 µM (inactive)
